Measured values: patent publication US8372885B2, “Organic compounds and their uses” (Novartis AG, priority 2008, dated 2013)

Molecular target: T1, P. aeruginosa LpxC (Pseudomonas aeruginosa, UniProt P47205)
T1 construct: made in house
T1 sequence (P47205 1-303): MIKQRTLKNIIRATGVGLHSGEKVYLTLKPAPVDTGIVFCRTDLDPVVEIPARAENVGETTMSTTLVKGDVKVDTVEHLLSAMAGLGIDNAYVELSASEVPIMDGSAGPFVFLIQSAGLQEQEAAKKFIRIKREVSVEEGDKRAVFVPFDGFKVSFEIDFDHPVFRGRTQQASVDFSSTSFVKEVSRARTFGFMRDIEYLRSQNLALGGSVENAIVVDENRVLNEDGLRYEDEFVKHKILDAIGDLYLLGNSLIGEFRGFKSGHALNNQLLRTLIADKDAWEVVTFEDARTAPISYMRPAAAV
Test: biochemical
Conditions: 1 nM P. aeruginosa LpxC, 30 min pre-incubation, 2 μM UDP-3-O-(R-3-hydroxydecanoyl)-GlcNAc, pH 7.5, room temperature; read-out: IC50 (LpxC inhibitory activity)
Source text: The LC-MS/MS method for quantitation of LpxC product was developed using an Agilent 1200 Capillary HPLC system coupled to an Applied Biosystems MDS Sciex 4000QTRAP mass spectrometer. Both instruments are controlled using the Applied Biosystems MDS Sciex Analyst software. LpxC reaction product (UDP-3-O—(R-3-hydroxyacyl)-glucosamine) was produced by hydrolysis of LpxC substrate catalyzed by P. a. LpxC and purified using reversed phase chromatography on a Phenomenex Luna C18(2) 4.6×50 mm column. An LpxC product calibration curve was generated to evaluate the sensitivity and dynamic range of the LC-MS/MS method. Briefly, compounds are pre-incubated with 1 nM P. aeruginosa LpxC for 30 min. at room temperature. Reactions are initiated by the addition of 2 μM UDP-3-O—(R-3-hydroxydecanoyl)-GlcNAc. Reactions are conducted in a 96-well plate with a total volume of 100 μL in each well containing 50 mM Sodium phosphate pH 7.5, 0.005% Trition X-100 for 20 min at room temperature. After quenching with 1.8% HOAc (10 μL of a 20% HOAc added to each well), reaction mixtures are analyzed using the LC-MS/MS method and peak areas are transformed into product concentration using a LpxC product calibration curve. […] For IC50 determinations, peak areas are converted to percent inhibition in Microsoft Excel. Percent inhibition values are plotted vs. log compound concentration using XLfit. Data is fit to the four-parameter logistic equation using the non-linear regression algorithm in XLfit to return the IC50 and hill slope values.

IC50 [nM] | Structure (SMILES)
1240 | Cc1ccc(C#CCOc2ccc(C(=O)N[C@H](C(=O)NO)C(C)(C)N)cc2)cc1 [Example 66]
15.9 | CC#CCOc1ccc(C(=O)NC(C(=O)NO)C(C)(C)N)c(F)c1F (centres unmarked) [Example 36]
7.6 | C[C@@H](N)[C@H](NC(=O)c1ccc(C#CCOc2ccccc2)cc1)C(=O)NO [Example 18]
23 | CC(C)(C)C#CCOc1ccc(C(=O)NC(C(=O)NO)C(C)(C)N)cc1 (centres unmarked) [Example 4, N-(3-amino-1-(hydroxyamino)-3-methyl-1-oxobutan-2-yl)-4-(4,4-dimethylpent-2-ynyloxy)benzamide]
1 | CC(C)(N)[C@H](NC(=O)c1ccc(OCC#Cc2ccccc2)cc1)C(=O)NO [Example 80]
4.1 | CC#CCOc1c(F)cc(C(=O)NC(C(=O)NO)C(C)(C)N)cc1F (centres unmarked) [Example 56]
1 | C=C(C)C#CCOc1ccc(C(=O)N[C@H](C(=O)NO)C(C)(C)N)cc1 [Example 43]
8 | CC(C)=CC#CCOc1ccc(C(=O)N[C@H](C(=O)NO)[C@@H](C)N)cc1 [Example 60]
55.7 | CCCCCC#CCNc1ccc(C(=O)N[C@@H](CN)C(=O)NO)cn1 [Example 28]
13.1 | C[C@@H](N)[C@H](NC(=O)c1ccc(OCCCC2CC2)cc1)C(=O)NO [Example 50]
6 | C[C@@H](N)[C@H](NC(=O)c1ccc(OCC#CC2CC2)cc1)C(=O)NO [Example 34]
231 | CC#CC(C)Oc1ccc(C(=O)N[C@H](C(=O)NO)[C@@H](C)N)cc1 (some centres unmarked) [Example 32]
38.9 | C#CCOc1ccc(C(=O)N[C@H](C(=O)NO)[C@@H](C)N)cc1 [Example 29]
2 | CC(C)(N)[C@H](NC(=O)c1ccc(OCC#CC2=CCOCC2)cc1)C(=O)NO [Example 12, N-((S)-2-Amino-1-hydroxycarbamoyl-2-methyl-propyl)-4-[3-(3,6-dihydro-2H-pyran-4-yl)-prop-2-ynyloxy]-benzamide]
